Measurements taken from US5306819A, “Certain aryl a cycloalkyl fused imidazopyrazinols; and new class of GABA brain receptor ligands” (Neurogen Corporation, priority 1992, dated 1994).

test system: GABA receptor; assay: not given; conditions: Tallman et al., 1978; cited from earlier work

Row | Compound | Enhancement of benzodiazepine binding by GABA agonists is blocked
1 | CN1CCc2cc3c(cc2[C@@H]1[C@H]1OC(=O)c2c1ccc1c2OCO1)OCO3 [(-) bicuculline] | much less active
2 | CN1CCc2cc3c(cc2[C@H]1[C@@H]1OC(=O)c2c1ccc1c2OCO1)OCO3 [(+) bicuculline] | blocked

molecular target: GABAa receptor; assay: assay for GABAa receptor activity: inhibition of 3H-RO15-1788 (3H-Flumazenil) binding to rat cortical tissue; conditions: 3H-RO15-1788 0.5 nM, 30 min at 4°
Procedure: The pharmaceutical utility of compounds of this invention are indicated by the following assay for GABAa receptor activity.
Assays are carried out as described in Thomas and Tallman (J. Bio. Chem. 156: 9838-9842, J. Neurosci. 3:433-440, 1983). Rat cortical tissue is dissected and homogenized in 25 volumes (w/v) of 0.05M Tris HCl buffer (pH 7.4 at 4° C.). The tissue homogenate is centrifuged in the cold (4°) at 20,000×g for 20'. The supernatant is decanted and the pellet is rehomogenized in the same volume of buffer and again centrifuged at 20,000×g. The supernatant is decanted and the pellet is frozen at -20° C. overnight. The pellet is then thawed and rehomogenized in 25 volumes (original wt/vol) of buffer and the procedure is carried out twice. The pellet is finally resuspended in 50 volumes (w/vol of 0.05M Tris HCl buffer (pH 7.4 at […]).
Incubations contain […] of tissue homogenate, […] of radioligand 0.5 nM (^3 H-RO15-1788 [^3 H-Flumazenil] specific activity 80 Ci/mmol), drug or blocker and buffer to a total volume of […]. Incubations are carried for 30 min at 4° then are rapidly filtered through GFB filters to separate free and bound ligand. Filters are washed twice with fresh 0.05M Tris HCl buffer (pH 7.4 at 4° C.) and counted in a liquid scintillation counter. […] diazepam is added to some tubes to determine nonspecific binding. Data are collected in triplicate determinations, averaged and % inhibition of total specific binding is calculated. Total Specific Binding=Total-Nonspecific. In some cases, the amounts of unlabeled drugs is varied and total displacement curves of binding are carried out. Data are converted to a form for the calculation of IC50 and Hill Coefficient (nH).

Row | Compound | IC50 [nM]
3 | COc1ccc(-c2nc3c[nH]c4c(n-3c2=O)CCCCC4)c(F)c1 [Compound 15, 2-(2-Fluoro-4-methoxyphenyl)-cyclohept[b]imidazo[2,1-f]pyrazin-1(5H)-one] | 13
4 | COc1ccc(-c2nc3c[nH]c4c(n-3c2=O)CCCC4)c(F)c1 [Compound 8, 2-(2-Fluoro-4-methoxyphenyl)-imidazo-[1,2-a]-6,7,8,9-tetrahydroquinoxalin-1(5H)-one] | 5.4
5 | COc1ccc(-c2nc3c[nH]c4c(n-3c2=O)CCC4)c(F)c1 [Compound 16, 2-(2-Fluoro-4-methoxyphenyl)-cyclopent[b]imidazo[2,1-f]pyrazin-1(5H)-one] | 15
6 | O=c1c(-c2ccccc2F)nc2c[nH]c3c(n1-2)CCCC3 [Compound 1, 2-(2-fluorophenyl)-imidazo-[1,2-a]-6,7,8,9-tetrahydroquinoxalin-1(5H)-one] | 11
